What all share (test): SPR binding to immobilized biotinylated RNA
Background: Surface plasmon resonance follows binding to a sensor surface in real time, without labels.

For assay [1], the system named is (CUG)10 RNA (SEQ ID NO: 3). To be noted: for ka / kd / Kd / Residence time (t1/2) for compound binding to RNA / Off-rates (koff) / On-rates (kon) / apparent KD: (CUG)10; for sequence selectivity: CUG repeats versus other RNAs. The method, then: (§1) SPR binding measurements were performed on a Biacore-X instrument (Biacore, Inc., Uppsala, Sweden) with two flow channels (FC1 and FC2). 5′-Biotinylated-RNA sequences, with a C6 linker separating the biotin label from the RNA (Integrated DNA Technologies Inc.) were immobilized on streptavidin (Rockland Immunochemicals) functionalized carboxylmethyl dextran coated sensor chips (CM5, G.E. Healthcare) using EDC/NHS (Advanced ChemTech) coupling chemistry. Filtered (0.2μ), degassed and autoclaved HBS-N buffer (0.01M Hepes, pH=7.4, 0.15 M NaCl) was employed as sample and as running buffer for all SPR experiments. A typical protocol for an experiment is as follows: A CM5 sensor chip was allowed to equilibrate to room temperature and then docked into the instrument. Following priming with running buffer, FC1 and FC2 were conditioned by manual injection of 20 μL aqueous NaOH (50 mM) at a flow rate of 30 μL/min. This was repeated 3 times followed by a wash command. Next, the carboxyl groups on the sensor chip surface in both flow cells were activated separately by injecting 60 μL of freshly prepared 1:1 mixture of EDC (0.4 M) and NHS (0.1 M) at a 5 μL/min flow rate followed by a wash. […] After washing, the surface was deactivated with 60 μL injection of ethanolamine (1M, pH=8.5) at 5 μL/min. The flow cells were primed, and the streptavidin surface in FC1 alone was blocked with 30 μL of biotin (20 μM in HBS-N) at 5 μL/min. The RNA (200 nM in running buffer, HBS-N) to be immobilized was unfolded by heating above its predicted melting temperature in a heated block for 2 min and then allowed to refold by cooling gradually to room temperature. The RNA was then immobilized in FC2 alone to response units ranging from 200-1000 RU using a 5 μL/min flow rate. Representative sensorgrams for the immobilization procedure is shown in FIGS. 2A-B. Two 20 μL aliquots of NaCl (0.5 M) were injected at a 30 μL/min flow rate to remove non-specifically bound RNA. The level of RNA immobilized was noted when the baseline was stable, usually after repeated buffer injection followed by a “prime” command. Binding measurements were performed by flowing various concentrations of the compounds to be analyzed over the immobilized RNA and recording the reference-subtracted (FC2−FC1) sensorgrams. For kinetic analysis, at least five sensorgrams corresponding to different concentrations of compound (usually ranging from 0.05-1 μM in HBS-N) were obtained using flow rates of either 60 μL/min or 30 μL/min. The experimental sensorgrams were globally fitted to a 1:1 binding equation (Biaevaluation software) to obtain association rates (ka) and dissociation rates ([…]) as well as equilibrium binding constants (KD). To measure the binding stoichiometry (n), the relations in equations (1-3) below were used: […]
(§2) where RUmax is the maximum resonance response unit at saturation, RURNA is the amount RU of RNA immobilized, n is the stoichiometry, MWcompound and MWRNA are molecular weights of compound and RNA respectively, and RUeq represents the resonance response at steady-state (equilibrium). The response units at equilibrium were subjected to Scatchard binding plots of (r/Cfree vs. r).
This technique allows the association and dissociation rates (ka and kd), equilibrium binding constants (KD), and the binding stoichiometry (n) to be measured in a label-free format (Liu and Wilson, “Quantitative Analysis of Small Molecule-nucleic Acid Interactions with a Biosensor Surface and Surface Plasmon Resonance Detection,” Methods Mol. Biol. 613:1-23 (2010), which is hereby incorporated by reference in its entirety).

Assay [2] concerns (CUG)2 RNA (SEQ ID NO: 1). The conditions noted are these: Table 7, SPR. As for the experimental part:
as §1, §2
(§3) The binding characteristics of compounds 3-11 were evaluated against pathogenic CUG^exp RNA and other RNA sequences by SPR. This technique allows the association and dissociation rates (ka and kd), equilibrium binding constants (KD), and the binding stoichiometry (n) to be measured in a label-free format (Liu and Wilson, “Quantitative Analysis of Small Molecule-nucleic Acid Interactions with a Biosensor Surface and Surface Plasmon Resonance Detection,” Methods Mol. Biol. 613:1-23 (2010), which is hereby incorporated by reference in its entirety). […]

The test system of assay [3] is (CCUG)10 RNA (SEQ ID NO: 4). To be noted: for Residence time (t1/2) for compound binding to RNA / Off-rates (koff) / On-rates (kon): (CCUG)10. As for the experimental part:
as §1, §2, §3

For assay [4], the system named is (CAG)10 RNA (SEQ ID NO: 5). The conditions noted are these: for Off-rates (koff) / On-rates (kon): SPR. As for the experimental part: as §1, §2, §3
Assay [5] has as its system HIV-1 FSS RNA (SEQ ID NO: 7). The method, then:
as §1
where RUmax is the maximum resonance response unit at saturation, RURNA is the amount RU of RNA immobilized, n is the stoichiometry, MWcompound and MWRNA are molecular weights of compound and RNA respectively, and RUeq represents the resonance response at steady-state (equilibrium). The response units at equilibrium were subjected to Scatchard binding plots of (r/Cfree vs. r). […]
SPR and fluorescence titration experiments, performed using the protocol described in Examples 3 and 4 above, except using as the target a highly conserved RNA sequence responsible for regulating the production of the Gag-Pol polyprotein via a −1 ribosomal frameshift, which occurs along a “slippery sequence” in gag-pol mRNA (SEQ ID NO: 7). This “frameshift stimulatory sequence” (or “HIV-1 FSS”) consists of an upper stemloop and a lower stem, separated by a purine bulge in the most common types of HIV (FIG. 19). For the fluorescent titration experiments, the upper stemloop of SEQ ID NO: 7 was employed. Cell uptake and toxicity studies were carried out using human fibroblasts according to Example 5 above.

Assay [6] relates to CUG-CAG duplex ("Duplex") (SEQ ID NO: 6). The conditions noted are these: Duplex. The method, then:
as §1, §2, §3

Data on eight compounds can be found in patent US20140050778A1, “NUCLEIC ACID BINDING COMPOUNDS, METHODS OF MAKING, AND USE THEREOF” (UNIVERSITY OF ROCHESTER, priority 2010, published 2014).

Where two headings read alike, the source gives them in different places.

For the compound `CCc1nc2cc3ccccc3cc2cc1C(=O)N1CCC[C@H]1C(=O)N[C@@H](C/C=C/C[C@H](NC(=O)[C@@H]1CCCN1C(=O)c1cc2cc3ccccc3cc2nc1CC)C(=O)N(C)[C@@H](CCCCN)C(=O)NCCCN)C(=O)N(C)[C@@H](CCCCN)C(=O)NCCCN` [20 (E)], in assay [1] (Table 7, SPR), the ka entry is on record as “ka = 1.8 ± 0.9E+4/M * s” and the kd entry is “kd = 1.4 ± 0.6E−3/s”. The Kd in assay [1] (Table 7, SPR, read-out: KD) was 83 nM.
The matching figures for `CCc1nc2cc3ccccc3cc2cc1C(=O)N1CCC[C@H]1C(=O)N(C)[C@@H](C/C=C\C[C@@H](C(=O)N[C@@H](CCCCN)C(=O)NCCCN)N(C)C(=O)[C@@H]1CCCN1C(=O)c1cc2cc3ccccc3cc2nc1CC)C(=O)N[C@@H](CCCCN)C(=O)NCCCN` [21 (Z)]: “ka = 1.6 ± 0.3E+4/M * s”, “kd = 1.6 ± 0.1E−3/s” and 102 nM.
With `CCc1nc2cc3ccccc3cc2cc1C(=O)N1CCC[C@H]1C(=O)N(C)[C@@H](C/C=C/C[C@@H](C(=O)N(C)[C@@H](CCCCN)C(=O)NCCCN)N(C)C(=O)[C@@H]1CCCN1C(=O)c1cc2cc3ccccc3cc2nc1CC)C(=O)N(C)[C@@H](CCCCN)C(=O)NCCCN` [22 (E)], in assay [1] (Table 7, SPR), the ka entry is “bka = 1.2 ± 0.3E+4/M * s” and the kd entry is “kd = 8.7 ± 0.3E−4/s”. Besides, the Kd in assay [1] (Table 7, SPR, read-out: KD) was found to be 72 nM. In addition, in assay [2], the ka entry is recorded as “ka = 1.9 ± 0.4E+4/M * s” and the kd entry is listed as “kd = 8 ± 4E−4/s”.
With `CCc1nc2cc3ccccc3cc2cc1C(=O)N1CCC[C@H]1C(=O)N(C)[C@@H](C/C=C\C[C@@H](C(=O)N(C)[C@@H](CCCCN)C(=O)NCCCN)N(C)C(=O)[C@@H]1CCCN1C(=O)c1cc2cc3ccccc3cc2nc1CC)C(=O)N(C)[C@@H](CCCCN)C(=O)NCCCN` [22 (Z)], in assay [1] (Table 7, SPR), the ka entry was “ka = 9.2 ± 0.4E+3/M * s” and the kd entry is listed as “kd = 3 ± 2E−3/s”. In addition, the Kd in assay [1] (Table 7, SPR, read-out: KD) was found to be 378 nM.
Turning to `NCCCC[C@H](NC(=O)[C@H](C/C=C\C[C@H](NC(=O)[C@@H]1CCCN1)C(=O)N[C@@H](CCCCN)C(=O)NCCCN)NC(=O)[C@@H]1CCCN1)C(=O)NCCCN` [Compound 6], the “Residence time (t1/2) for compound binding to RNA” value (from here on “Residence time”) was determined as 19.91 s in assay [1], 2.32 s in assay [3], 36.09 s in assay [4] and 26.96 s in assay [5]. In addition, the “Off-rates (koff)” value in assay [1] (SPR) amounted to 0.0348 s⁻¹; in assay [3] (SPR), 0.299 s⁻¹; in assay [4], 0.0192 s⁻¹; in assay [5] (SPR), 0.0257 s⁻¹. The “On-rates (kon)” value in assay [1] (SPR) was 132000 M⁻¹ s⁻¹; in assay [3] (SPR), 13600 M⁻¹ s⁻¹; in assay [4], 125000 M⁻¹ s⁻¹; in assay [5] (SPR), 221000 M⁻¹ s⁻¹. For the same compound, the “apparent KD” value in assay [1] (SPR) was “modest affinity”. Also, the sequence selectivity entry in assay [1] (SPR) is recorded as “neither displayed any selectivity”.
Consider `CCc1nc2cc3ccccc3cc2cc1C(=O)N[C@@H](CCCCN)C(=O)N[C@@H](C/C=C\C[C@H](NC(=O)[C@H](CCCCN)NC(=O)c1cc2cc3ccccc3cc2nc1CC)C(=O)N1CCC[C@H]1C(=O)NCCCN)C(=O)N1CCC[C@H]1C(=O)NCCCN` [Compound 8], for which the “Residence time” value in assay [1] is 228.71 s; in assay [3], 152.98 s; in assay [4] it was 116.86 s; in assay [6], 255.72 s. Also, the “Off-rates (koff)” value came out at 0.00303 s⁻¹ in assay [1] (SPR), 0.00453 s⁻¹ in assay [3] (SPR), 0.00593 s⁻¹ in assay [4] and 0.00271 s⁻¹ in assay [6] (SPR). The “On-rates (kon)” value worked out at 24600 M⁻¹ s⁻¹ in assay [1] (SPR), 15400 M⁻¹ s⁻¹ in assay [3] (SPR), 12600 M⁻¹ s⁻¹ in assay [4] and 29000 M⁻¹ s⁻¹ in assay [6] (SPR). Besides, the “apparent KD” value in assay [1] (SPR) is recorded as “reduced affinity”. For the same compound, the sequence selectivity entry in assay [1] (SPR) was “no selectivity for CUG or CCUG repeats relative to duplex CUG-CAG or HIV-1 FSS RNAs”.
Regarding `CCc1nc2cc3ccccc3cc2cc1C(=O)N[C@@H](C/C=C\C[C@H](NC(=O)c1cc2cc3ccccc3cc2nc1CC)C(=O)N1CCC[C@H]1C(=O)N[C@@H](Cc1ccccc1)C(=O)NCCCN)C(=O)N1CCC[C@H]1C(=O)N[C@@H](Cc1ccccc1)C(=O)NCCCN` [Compound 19], the Kd in assay [5] (SPR, read-out: apparent KD) was 102 ± 0.021 nM.
As to Neomycin [reference compound], the “Residence time” value was found to be 13.70 s in assay [1] and 3.55 s in assay [3]. Besides, the figures for the “Off-rates (koff)” value in assay [1] (SPR) and in assay [3] (SPR) were 0.0507 s⁻¹ and 0.195 s⁻¹, respectively. Also, the “On-rates (kon)” value in assay [1] (SPR) worked out at 125000 M⁻¹ s⁻¹; in assay [3] (SPR), 109000 M⁻¹ s⁻¹. The Kd came out at 409.6 ± 0.89 nM in assay [1] (SPR, read-out: apparent KD) and 1960 ± 714 nM in assay [3] (SPR, (CCUG)10, running text, read-out: apparent KD).
